Assay results published in patent US20250034135A1, “ANTI-APOPTOTIC PROTEIN BCL-2 INHIBITOR, PHARMACEUTICAL COMPOSITION AND USES THEREOF” (HANGZHOU HEALZEN THERAPEUTICS CO., LTD., priority 2021, published 2025).

Biological target: BCL2 (Homo sapiens (Human), UniProt P10415)
Assay: Molecular level activity test of anti-apoptotic protein BCL2 (HTRF, binding to Bim peptide)
Settings: HTRF, binding of BCL2 to Bim peptide; read-out: BCL2 nM (inhibitory activity, IC50)
In short: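 Disruption of the BCL2/Bim peptide interaction is detected by homogeneous time-resolved fluorescence, using anti-His and streptavidin-XL665 reagents against His-tagged protein and biotin-tagged peptide. Compound exposure lasts 1 h before reagent addition; plates then sit 4 h at room temperature.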

BCL2, sequence (P10415 whole entry): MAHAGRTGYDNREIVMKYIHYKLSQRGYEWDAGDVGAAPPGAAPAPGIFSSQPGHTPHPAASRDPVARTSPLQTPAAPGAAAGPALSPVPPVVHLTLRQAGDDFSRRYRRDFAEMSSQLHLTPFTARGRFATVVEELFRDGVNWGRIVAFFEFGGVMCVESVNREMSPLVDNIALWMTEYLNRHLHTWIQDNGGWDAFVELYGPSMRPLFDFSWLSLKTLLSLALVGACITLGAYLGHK

SMILES	IC50
CC(C)c1ccccc1[C@@H]1CN(Cc2ccc(F)cc2)CCN1C1CC2(CCN(c3ccc(C(=O)NS(=O)(=O)c4cc([N+](=O)[O-])c(NCC5(F)CCOCC5)c5c4OCO5)c(Oc4cnc5[nH]ccc5c4)c3)CC2)C1 [compound 167, (R)-2-((1H-pyrrolo[2,3-b]pyrid-5-yl)oxy)-4-(2-(4-(4-fluorobenzyl)-2-(2-isopropylphenyl)piperazin-1-yl)-7-azaspiro[3.5]non-7-yl)-N-((7-(((4-fluorotetrahydro-2H-pyran-4-yl)methyl)amino)-6-nitrobenzo[d][1,3]dioxocyclopent-4-yl)sulfonyl)benzamide]	< 0.01 µM
COc1cc(CN2CCN(C3CC4(CCN(c5ccc(C(=O)NS(=O)(=O)c6cc([N+](=O)[O-])c(NCC7(F)CCOCC7)c7c6OCO7)c(Oc6cnc7[nH]ccc7c6)c5)CC4)C3)[C@H](c3ccccc3C(C)C)C2)cc2cc(C)oc12 [compound 171, (R)-2-((1H-pyrrolo[2,3-b]pyrid-5-yl)oxy)-N-((7-(((4-fluorotetrahydro-2H-pyran-4-yl)methyl)amino)-6-nitrobenzo[d][1,3]dioxocyclopent-4-yl)sulfonyl)-4-(2-(2-(2-isopropylphenyl)-4-((7-methoxy-2-methylbenzofuran-5-yl)methyl)piperazin-1-yl)-7-azaspiro[3.5]non-7-yl)benzamide]	< 0.01 µM
COc1ccc(CN2CCN(C3CC4(CCN(c5cc(Oc6cnc7[nH]ccc7c6)c(C(=O)NS(=O)(=O)c6cc([N+](=O)[O-])c(NC[C@H]7CC[C@](C)(O)CC7)c7occc67)cc5F)CC4)C3)[C@H](c3ccccc3C(C)C)C2)cc1 [compound 115, 2-((1H-pyrrolo[2,3-b]pyrid-5-yl)oxy)-5-fluoro-N-((7-((((1r, 4r)-4-hydroxy-4-methylcyclohexyl)methyl)amino)-6-nitrobenzofuran-4-yl)sulfonyl)-4-(2-((R)-2-(2-isopropylphenyl)-4-(4-methoxybenzyl)piperazin-1-yl)-7-azaspiro[3.5]non-7-yl)benzamide]	< 0.01 µM
CC(C)c1ccccc1[C@@H]1CN(Cc2c(F)cccc2F)CCN1C1CC2(CCN(c3ccc(C(=O)NS(=O)(=O)c4cc([N+](=O)[O-])c(NC[C@H]5CC[C@](C)(O)CC5)c5c4OCO5)c(Oc4cnc5[nH]ccc5c4)c3)CC2)C1 [compound 177, 2-((1H-pyrrolo[2,3-b]pyrid-5-yl)oxy)-4-(2-((R)-4-(2,6-difluorobenzyl)-2-(2-isopropylphenyl)piperazin-1-yl)-7-azaspiro[3.5]non-7-yl)-N-((7-((((1r, 4r)-4-hydroxy-4-methylcyclohexyl)methyl)amino)-6-nitrobenzo[d][1,3]dioxocyclopent-4-yl)sulfonyl)benzamide]	< 0.01 µM
CC(C)c1ccccc1[C@@H]1CCCN1C1CC2(CCN(c3cc(Oc4cnc5[nH]ccc5c4)c(C(=O)NS(=O)(=O)c4cc([N+](=O)[O-])c(NC[C@H]5CC[C@](C)(O)CC5)c5scnc45)cc3F)CC2)C1 [compound 098, 2-((1H-pyrrolo[2,3-b]pyrid-5-yl)oxy)-5-fluoro-N-((7-((((1r, 4r)-4-hydroxy-4-methylcyclohexyl)methyl)amino)-6-nitrobenzo[d]thiazol-4-yl)sulfonyl)-4-(2-((S)-2-(2-isopropylphenyl)pyrrolidin-1-yl)-7-azaspiro[3.5]non-7-yl)benzamide]	< 0.01 µM
CC(C)c1ccccc1[C@@H]1CN(Cc2ccccn2)CCN1C1CC2(CCN(c3cc(Oc4cnc5[nH]ccc5c4)c(C(=O)NS(=O)(=O)c4ccc(NC[C@H]5CC[C@](C)(O)CC5)c([N+](=O)[O-])c4)cc3F)CC2)C1 [compound 233, 2-((1H-pyrrolo[2,3-b]pyrid-5-yl)oxy)-5-fluoro-N-((4-((((1r, 4r)-4-hydroxy-4-methylcyclohexyl)methyl)amino)-3-nitrophenyl)sulfonyl)-4-(2-((R)-2-(2-isopropylphenyl)-4-(pyrid-2-ylmethyl)piperazin-1-yl)-7-azaspiro[3.5]non-7-yl)benzamide]	< 0.01 µM
CC(C)c1ccccc1[C@@H]1CN(Cc2ccc(C#N)cc2)CCN1C1CC2(CCN(c3cc(Oc4cnc5[nH]ccc5c4)c(C(=O)NS(=O)(=O)c4ccc(NC[C@H]5CC[C@](C)(O)CC5)c([N+](=O)[O-])c4)cc3F)CC2)C1 [compound 214, 2-((1H-pyrrolo[2,3-b]pyrid-5-yl)oxy)-4-(2-((R)-4-(4-cyanobenzyl)-2-(2-isopropylphenyl)piperazin-1-yl)-7-azaspiro[3.5]non-7-yl)-5-fluoro-N-((4-((((1r, 4r)-4-hydroxy-4-methylcyclohexyl)methyl)amino)-3-nitrophenyl)sulfonyl)benzamide]	< 0.01 µM
COc1ccc(CN2CCN(C3CC4(CCN(c5ccc(C(=O)NS(=O)(=O)c6cc([N+](=O)[O-])c(NC[C@H]7COCCO7)c7c6OCO7)c(Oc6cnc7[nH]ccc7c6)c5)CC4)C3)[C@H](c3ccccc3C(C)C)C2)cc1 [compound 148, N-((7-((((S)-1,4-dioxan-2-yl)methyl)amino)-6-nitrobenzo[d][1,3]dioxocyclopent-4-yl)sulfonyl)-2-((1H-pyrrolo[2,3-b]pyrid-5-yl)oxy)-4-(2-((R)-2-(2-isopropylphenyl)-4-(4-methoxybenzyl)piperazin-1-yl)-7-azaspiro[3.5]non-7-yl)benzamide]	< 0.01 µM
COc1ccc(CN2CCN(C3CC4(CCN(c5cc(Oc6cnc7[nH]ccc7c6)c(C(=O)NS(=O)(=O)c6cc([N+](=O)[O-])c(NCC7CCOCC7)c7[nH]cnc67)cc5F)CC4)C3)C(c3ccccc3C(C)C)C2)cc1 (stereo not shown) [compound 076, 2-((1H-pyrrolo[2,3-b]pyrid-5-yl)oxy)-5-fluoro-4-(2-(2-(2-isopropylphenyl)-4-(4-methoxybenzyl)piperazin-1-yl)-7-azaspiro[3.5]non-7-yl)-N-((6-nitro-7-(((tetrahydro-2H-pyran-4-yl)methyl)amino)-1H-benzo[d]imidazol-4-yl)sulfonyl)benzamide]	< 0.01 µM
CC(C)c1ccccc1[C@@H]1CN(Cc2ccc(F)c(F)c2)CCN1C1CC2(CCN(c3ccc(C(=O)NS(=O)(=O)c4cc([N+](=O)[O-])c(NC[C@H]5CC[C@](C)(O)CC5)c5c4OCO5)c(Oc4cnc5[nH]ccc5c4)c3)CC2)C1 [compound 176, 2-((1H-pyrrolo[2,3-b]pyrid-5-yl)oxy)-4-(2-((R)-4-(3,4-difluorobenzyl)-2-(2-isopropylphenyl)piperazin-1-yl)-7-azaspiro[3.5]non-7-yl)-N-((7-((((1r, 4r)-4-hydroxy-4-methylcyclohexyl)methyl)amino)-6-nitrobenzo[d][1,3]dioxocyclopent-4-yl)sulfonyl)benzamide]	< 0.01 µM
COc1ccc(CN2CCN(C3CC4(CCN(c5ccc(C(=O)NS(=O)(=O)c6cc([N+](=O)[O-])c(NCC7(F)CCN(C(C)C)CC7)c7[nH]cnc67)c(Oc6cnc7[nH]ccc7c6)c5)CC4)C3)C(c3ccccc3C(C)C)C2)cc1 (stereo not shown) [compound 048, 2-((1H-pyrrolo[2,3-b]pyrid-5-yl)oxy)-N-((7-(((4-fluoro-1-isopropylpiperid-4-yl)methyl)amino)-6-nitro-1H-benzo[d]imidazol-4-yl)sulfonyl)-4-(2-(2-(2-isopropylphenyl)-4-(4-methoxybenzyl)piperazin-1-yl)-7-azaspiro[3.5]non-7-yl)benzamide]	< 0.01 µM
CC(C)c1ccccc1[C@@H]1CCCN1C1CC2(CCN(c3cc(Oc4cnc5[nH]ccc5c4)c(C(=O)NS(=O)(=O)c4cc([N+](=O)[O-])c(NCC5(F)CCN(CC(C)(C)C)CC5)c5[nH]cnc45)cn3)CC2)C1 [compound 025, (S)-4-((1H-pyrrolo[2,3-b]pyrid-5-yl)oxy)-N-((7-(((4-fluoro-1-neopentylpiperid-4-yl)methyl)amino)-6-nitro-1H-benzo[d]imidazol-4-yl)sulfonyl)-6-(2-(2-(2-isopropylphenyl)pyrrolidin-1-yl)-7-azaspiro[3.5]non-7-yl) nicotinamide]	< 0.01 µM
COc1ccc(CN2CCN(C3CC4(C3)CN(c3cc(Oc5cnc6[nH]ccc6c5)c(C(=O)NS(=O)(=O)c5ccc(NCC6(F)CCN(C7COC7)CC6)c([N+](=O)[O-])c5)cn3)C4)C(c3ccccc3C(C)C)C2)cc1 (stereo not shown) [compound 054]	< 0.01 µM
CC(C)c1ccccc1[C@@H]1CCCN1C1CC2(CCN(c3ccc(C(=O)NS(=O)(=O)c4cc([N+](=O)[O-])c(NC[C@H]5COCCO5)c5c4OCO5)c(Oc4cnc5[nH]ccc5c4)c3)CC2)C1 [compound 161, N-((7-((((S)-1,4-dioxan-2-yl)methyl)amino)-6-nitrobenzo[d][1,3]dioxocyclopent-4-yl)sulfonyl)-2-((1H-pyrrolo[2,3-b]pyrid-5-yl)oxy)-4-(2-((S)-2-(2-isopropylphenyl)pyrrolidin-1-yl)-7-azaspiro[3.5]non-7-yl)benzamide]	< 0.01 µM
COc1ccc(CN2CCN(C3CC4(C3)CN(c3cc(Oc5cnc6[nH]ccc6c5)c(C(=O)NS(=O)(=O)c5cc([N+](=O)[O-])c(NCC6(F)CCN(C(C)C)CC6)c6[nH]cnc56)cn3)C4)C(c3ccccc3C(C)C)C2)cc1 (stereo not shown) [compound 070, 4-((1H-pyrrolo[2,3-b]pyrid-5-yl)oxy)-N-((7-(((4-fluoro-1-isopropylpiperid-4-yl)methyl)amino)-6-nitro-1H-benzo[d]imidazol-4-yl)sulfonyl)-6-(6-(2-(2-isopropylphenyl)-4-(4-methoxybenzyl)piperazin-1-yl)-2-azaspiro[3.3]hept-2-yl) nicotinamide]	< 0.01 µM
COc1ccc(CN2CCN(C3CC4(CCN(c5cc(Oc6cnc7[nH]ccc7c6)c(C(=O)NS(=O)(=O)c6cc([N+](=O)[O-])c(NCC7(F)CCOCC7)c7occc67)cn5)CC4)C3)[C@H](c3ccccc3C(C)C)C2)cc1 [compound 135, (R)-4-((1H-pyrrolo[2,3-b]pyrid-5-yl)oxy)-N-((7-(((4-fluorotetrahydro-2H-pyran-4-yl)methyl)amino)-6-nitrobenzofuran-4-yl)sulfonyl)-6-(2-(2-(2-isopropylphenyl)-4-(4-methoxybenzyl)piperazin-1-yl)-7-azaspiro[3.5]non-7-yl) nicotinamide]	< 0.01 µM
